Patent US9833497B2, “Human originated EGF domain proteins and use of the same” (CHENGDU SOURCEBIO LIMITED-LIABILITY COMPANY, priority 2013, dated 2017)

Experiments:
Assay type in all cases: cell-based
E. coli DH5α = experiment: Antibacterial activity: MIC and growth curve against E. coli DH5α in 96-well plate; details: minimal inhibitory concentration against E. coli DH5α; 96-well plate, 5×10^5 CFU/mL, 37° C., judged after 8 h
Method in brief: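 Log-phase bacteria (OD600 ~0.5) resuspended in LB at 5×10^5 CFU/mL, exposed to recombinant protein at 50, 25, 12.5 μg/mL final in triplicate, 37 °C shaking at 175 rpm. OD600 read every 30 min; MIC is lowest concentration showing no growth.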

E. coli BL21 = experiment: MIC against Gram-negative bacteria: E. coli BL21
Method in brief: (§1)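 Growth inhibition by human EGF domain proteins was scored in LB liquid culture seeded at 5×10^5 CFU/mL. Protein was applied as a two-fold dilution series in triplicate, with shaking incubation at 37° C; MIC is the lowest concentration giving no growth.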

Pseudomonas aeruginosa = experiment: MIC against Gram-negative bacteria: Pseudomonas aeruginosa; details: for MIC: P. aeruginosa
Method in brief: as §1

Klebsiella pneumonia = experiment: MIC against Gram-negative bacteria: Klebsiella pneumonia; details: for MIC: K. pneumonia
Method in brief: as §1

Enterobacter cloacae = experiment: MIC against Gram-negative bacteria: Enterobacter cloacae; details: for MIC: E. cloacae
Method in brief: as §1

Aeromonas hydrophila = experiment: MIC against Gram-negative bacteria: Aeromonas hydrophila; details: for MIC: A. hydrophila
Method in brief: as §1

Citrobacter diversus = experiment: MIC against Gram-negative bacteria: Citrobacter diversus; details: for MIC: C. diversus
Method in brief: as §1

Moraxella catarrhalis = experiment: MIC against Gram-negative bacteria: Moraxella catarrhalis; details: for MIC: M. catarrhalis
Method in brief: as §1

Proteus mirabilis = experiment: MIC against Gram-negative bacteria: Proteus mirabilis; details: for MIC: P. mirabilis
Method in brief: as §1

Proteus vulgaris = experiment: MIC against Gram-negative bacteria: Proteus vulgaris; details: for MIC: P. vulgaris
Method in brief: as §1

Serratia marcescens = experiment: MIC against Gram-negative bacteria: Serratia marcescens; details: for MIC: S. marcescens
Method in brief: as §1

[1] = E. coli BL21, 96-well plate, 5×10^5 CFU/mL, 37° C., 10 h
[2] = Pseudomonas aeruginosa, 96-well plate, 5×10^5 CFU/mL, 37° C., 10 h
[3] = Klebsiella pneumonia, 96-well plate, 5×10^5 CFU/mL, 37° C., 10 h
[4] = Enterobacter cloacae, 96-well plate, 5×10^5 CFU/mL, 37° C., 10 h
[5] = Aeromonas hydrophila, 96-well plate, 5×10^5 CFU/mL, 37° C., 10 h
[6] = Citrobacter diversus, 96-well plate, 5×10^5 CFU/mL, 37° C., 10 h
[7] = Moraxella catarrhalis, 96-well plate, 5×10^5 CFU/mL, 37° C., 10 h
[8] = Proteus mirabilis, 96-well plate, 5×10^5 CFU/mL, 37° C., 10 h
[9] = Proteus vulgaris, 96-well plate, 5×10^5 CFU/mL, 37° C., 10 h
[10] = Serratia marcescens, 96-well plate, 5×10^5 CFU/mL, 37° C., 10 h
[11] = E. coli BL21, 10 h cultivation at 37° C.
[12] = 10 h cultivation at 37° C., 5×10^5 CFU/mL, two-fold serial dilution
[13] = 96-well plate, 5×10^5 CFU/mL, 37° C., 10 h

PRT1217 (EITACFPNPCRNGGSCDPIGNTFICNCKAGLTGVTCE; listed as Homo sapiens)
MIC (E. coli DH5α): 50 µg/mL | MIC against E. coli BL21 (E. coli BL21; [1]): 12.5 µg/mL | MIC against P. aeruginosa (Pseudomonas aeruginosa; [2]): 50 µg/mL | MIC against K. pneumonia (Klebsiella pneumonia; [3]): 12.5 µg/mL | MIC against E. cloacae (Enterobacter cloacae; [4]): 25 µg/mL | MIC against A. hydrophila (Aeromonas hydrophila; [5]): 50 µg/mL | MIC against C. diversus (Citrobacter diversus; [6]): 25 µg/mL | MIC against M. catarrhalis (Moraxella catarrhalis; [7]): 12.5 µg/mL | MIC against P. mirabilis (Proteus mirabilis; [8]): 50 µg/mL | MIC against P. vulgaris (Proteus vulgaris; [9]): 25 µg/mL | MIC against S. marcescens (Serratia marcescens; [10]): 12.5 µg/mL

PRT997 (EVDECLSDPCPVGASCLDLPGAFFCLCPSGFTGQLCE; listed as Homo sapiens)
MIC (E. coli DH5α): 12.5 µg/mL | MIC (E. coli BL21; [11]): 12.5 µg/mL | MIC (Pseudomonas aeruginosa; 10 h cultivation at 37° C.): 12.5 µg/mL | MIC (Klebsiella pneumonia; 10 h cultivation at 37° C.): 12.5 µg/mL | MIC (Enterobacter cloacae; 10 h cultivation at 37° C.): 50 µg/mL | MIC (Aeromonas hydrophila; 10 h cultivation at 37° C.): 12.5 µg/mL | MIC (Citrobacter diversus; 10 h cultivation at 37° C.): 50 µg/mL | MIC (Moraxella catarrhalis; 10 h cultivation at 37° C.): 12.5 µg/mL | MIC (Proteus mirabilis; 10 h cultivation at 37° C.): 25 µg/mL | MIC (Proteus vulgaris; 10 h cultivation at 37° C.): 50 µg/mL | MIC (Serratia marcescens; 10 h cultivation at 37° C.): 25 µg/mL

PRT1071 (ELDQCWEHCRNGGTCAASPSGMPTCRCPTGFTGPKCT; listed as Homo sapiens)
MIC (E. coli DH5α): 50 µg/mL | MIC E. coli BL21 (E. coli BL21; [12]): 25 µg/mL | MIC P. aeruginosa (Pseudomonas aeruginosa; [12]): 12.5 µg/mL | MIC K. pneumonia (Klebsiella pneumonia; [12]): 25 µg/mL | MIC E. cloacae (Enterobacter cloacae; [12]): 50 µg/mL | MIC A. hydrophila (Aeromonas hydrophila; [12]): 25 µg/mL | MIC C. diversus (Citrobacter diversus; [12]): 12.5 µg/mL | MIC M. catarrhalis (Moraxella catarrhalis; [12]): 50 µg/mL | MIC P. mirabilis (Proteus mirabilis; [12]): 12.5 µg/mL | MIC P. vulgaris (Proteus vulgaris; [12]): 50 µg/mL | MIC S. marcescens (Serratia marcescens; [12]): 12.5 µg/mL

PRT83 (DDNVCLREPCENYMKCVSVLRFDSSAPFLASASTLFRPIQPIAGLRCRCPPGFTGDFCE; listed as Homo sapiens)
MIC (E. coli DH5α): 12.5 µg/mL | MIC (μg/mL) E. coli BL21 (E. coli BL21; [1]): 12.5 µg/mL | MIC (μg/mL) P. aeruginosa (Pseudomonas aeruginosa; [2]): 25 µg/mL | MIC (μg/mL) K. pneumonia (Klebsiella pneumonia; [3]): 12.5 µg/mL | MIC (μg/mL) E. cloacae (Enterobacter cloacae; [4]): 25 µg/mL | MIC (μg/mL) A. hydrophila (Aeromonas hydrophila; [5]): 12.5 µg/mL | MIC (μg/mL) C. diversus (Citrobacter diversus; [6]): 25 µg/mL | MIC (μg/mL) M. catarrhalis (Moraxella catarrhalis; [7]): 12.5 µg/mL | MIC (μg/mL) P. mirabilis (Proteus mirabilis; [8]): 12.5 µg/mL | MIC (μg/mL) P. vulgaris (Proteus vulgaris; [9]): 12.5 µg/mL | MIC (μg/mL) S. marcescens (Serratia marcescens; [10]): 12.5 µg/mL

PRT944 (TSHPCFVSRPCLNGGTCHMLSRDTYECTCQVGFTGKECQ; listed as Homo sapiens)
MIC (E. coli DH5α): 12.5 µg/mL | MIC (E. coli BL21; [11]): 25 µg/mL | MIC (Pseudomonas aeruginosa; 10 h cultivation at 37° C.): 50 µg/mL | MIC (Klebsiella pneumonia; 10 h cultivation at 37° C.): 100 µg/mL | MIC (Enterobacter cloacae; 10 h cultivation at 37° C.): 50 µg/mL | MIC (Aeromonas hydrophila; 10 h cultivation at 37° C.): 12.5 µg/mL | MIC (Citrobacter diversus; 10 h cultivation at 37° C.): 50 µg/mL | MIC (Moraxella catarrhalis; 10 h cultivation at 37° C.): 12.5 µg/mL | MIC (Proteus mirabilis; 10 h cultivation at 37° C.): 25 µg/mL | MIC (Proteus vulgaris; 10 h cultivation at 37° C.): 50 µg/mL | MIC (Serratia marcescens; 10 h cultivation at 37° C.): 12.5 µg/mL

PRT630 (CQCSGNVDPNAVGNCDPLSGHCLRCLHNTTGDHCEHCQEGFYGSALAPRPADKCMP; listed as Homo sapiens)
MIC (E. coli DH5α): 50 µg/mL | MIC E. coli BL21 (E. coli BL21; [13]): 25 µg/mL | MIC P. aeruginosa (Pseudomonas aeruginosa; [13]): 12.5 µg/mL | MIC K. pneumonia (Klebsiella pneumonia; [13]): 25 µg/mL | MIC E. cloacae (Enterobacter cloacae; [13]): 12.5 µg/mL | MIC A. hydrophila (Aeromonas hydrophila; [13]): 25 µg/mL | MIC C. diversus (Citrobacter diversus; [13]): 12.5 µg/mL | MIC M. catarrhalis (Moraxella catarrhalis; [13]): 25 µg/mL | MIC P. mirabilis (Proteus mirabilis; [13]): 12.5 µg/mL | MIC P. vulgaris (Proteus vulgaris; [13]): 25 µg/mL | MIC S. marcescens (Serratia marcescens; [13]): 12.5 µg/mL

PRT1409 (RACHPRCAEHGTCKDGKCECSQGWNGEHCT; listed as Homo sapiens)
MIC (E. coli DH5α): 12.5 µg/mL | MIC against E. coli BL21 (E. coli BL21; E. coli BL21, 5×10^5 CFU/mL, 10 h cultivation at 37° C.): 12.5 µg/mL | MIC against P. aeruginosa (Pseudomonas aeruginosa; Pseudomonas aeruginosa, 5×10^5 CFU/mL, 10 h cultivation at 37° C.): 12.5 µg/mL | MIC against K. pneumonia (Klebsiella pneumonia; Klebsiella pneumonia, 5×10^5 CFU/mL, 10 h cultivation at 37° C.): 12.5 µg/mL | MIC against E. cloacae (Enterobacter cloacae; Enterobacter cloacae, 5×10^5 CFU/mL, 10 h cultivation at 37° C.): 12.5 µg/mL | MIC against A. hydrophila (Aeromonas hydrophila; Aeromonas hydrophila, 5×10^5 CFU/mL, 10 h cultivation at 37° C.): 12.5 µg/mL | MIC against C. diversus (Citrobacter diversus; Citrobacter diversus, 5×10^5 CFU/mL, 10 h cultivation at 37° C.): 12.5 µg/mL | MIC against M. catarrhalis (Moraxella catarrhalis; Moraxella catarrhalis, 5×10^5 CFU/mL, 10 h cultivation at 37° C.): 12.5 µg/mL | MIC against P. mirabilis (Proteus mirabilis; Proteus mirabilis, 5×10^5 CFU/mL, 10 h cultivation at 37° C.): 50 µg/mL | MIC against P. vulgaris (Proteus vulgaris; Proteus vulgaris, 5×10^5 CFU/mL, 10 h cultivation at 37° C.): 12.5 µg/mL | MIC against S. marcescens (Serratia marcescens; Serratia marcescens, 5×10^5 CFU/mL, 10 h cultivation at 37° C.): 50 µg/mL
